Source: ChEMBL document CHEMBL5625161, “Pharmacological activity and mechanism of pyrazines” (Eur J Med Chem, 2023)
≈ marks a conversion by molar mass, not a printed value.

What was measured:
A549 [1] = assay: Antiproliferative activity against human A549 cells assessed as reduction in cell viability incubated for 48 hrs by SRB assay; format: functional, cell-based; details: A549, 48 h
H322 = assay: Antiproliferative activity against human H322 cells assessed as reduction in cell viability incubated for 48 hrs by SRB assay; format: functional, cell-based; details: NCI-H322, 48 h
MCF7 = assay: Antiproliferative activity against human MCF7 cells assessed as inhibition of cell growth at 10 uM incubated for 48 hrs by SRB assay relative to control; format: functional; parameters: scale not given: the % may be the effect or the level left
[2] = Selectivity index, ratio of IC50 for antiproliferative activity against human THLE-2 cells to IC50 for antiproliferative activity against human PC-3 cells
[3] = Antiproliferative activity against human THLE-2 cells assessed as reduction in cell viability incubated for 48 hrs by CCK-8 assay; format: toxicity, cell-based
PC-3 [4] = assay: Antiproliferative activity against human PC-3 cells assessed as reduction in cell viability incubated for 48 hrs by CCK-8 assay; format: functional, cell-based; details: PC-3, 48 h
SW 1116 = assay: Antiproliferative activity against human SW 1116 cells assessed as reduction in cell growth incubated for 48 hrs by MTT assay; format: functional, cell-based; details: SW 1116, 48 h
[5] = biological target: Telomerase reverse transcriptase (Homo sapiens, UniProt O14746); assay: Inhibition of telomerase (unknown origin)
Telomerase reverse transcriptase, sequence (O14746 whole entry): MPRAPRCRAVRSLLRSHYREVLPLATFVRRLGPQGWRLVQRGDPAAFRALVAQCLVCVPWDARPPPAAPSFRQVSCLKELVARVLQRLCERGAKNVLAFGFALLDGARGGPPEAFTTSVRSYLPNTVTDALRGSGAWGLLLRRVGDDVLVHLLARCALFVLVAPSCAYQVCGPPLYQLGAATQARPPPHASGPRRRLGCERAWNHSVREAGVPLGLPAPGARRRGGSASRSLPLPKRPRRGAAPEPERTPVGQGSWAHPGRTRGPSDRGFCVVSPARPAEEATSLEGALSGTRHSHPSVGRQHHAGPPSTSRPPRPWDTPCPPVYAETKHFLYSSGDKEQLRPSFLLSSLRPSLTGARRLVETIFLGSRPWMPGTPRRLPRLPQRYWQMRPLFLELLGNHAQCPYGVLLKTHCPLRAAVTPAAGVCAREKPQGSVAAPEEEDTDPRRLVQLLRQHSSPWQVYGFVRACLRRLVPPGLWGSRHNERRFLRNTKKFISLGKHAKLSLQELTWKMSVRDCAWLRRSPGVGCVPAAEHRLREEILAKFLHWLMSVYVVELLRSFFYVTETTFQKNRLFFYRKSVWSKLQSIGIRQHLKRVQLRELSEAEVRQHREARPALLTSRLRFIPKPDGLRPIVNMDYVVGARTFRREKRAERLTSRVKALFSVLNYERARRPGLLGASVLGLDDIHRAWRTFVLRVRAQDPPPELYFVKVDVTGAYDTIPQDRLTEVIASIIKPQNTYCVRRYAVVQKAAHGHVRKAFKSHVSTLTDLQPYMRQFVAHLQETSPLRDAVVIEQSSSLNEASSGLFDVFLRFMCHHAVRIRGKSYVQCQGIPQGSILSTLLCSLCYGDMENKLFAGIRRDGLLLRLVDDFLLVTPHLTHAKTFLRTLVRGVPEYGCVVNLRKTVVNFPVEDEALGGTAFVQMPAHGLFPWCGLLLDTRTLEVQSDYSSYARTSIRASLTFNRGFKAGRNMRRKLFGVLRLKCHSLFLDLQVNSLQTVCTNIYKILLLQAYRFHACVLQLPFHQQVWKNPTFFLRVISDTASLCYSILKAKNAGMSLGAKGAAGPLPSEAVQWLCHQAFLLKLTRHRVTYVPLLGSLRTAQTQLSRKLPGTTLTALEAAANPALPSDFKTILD

BGC-823 = assay: Cytotoxicity against human BGC-823 cells assessed as reduction in cell viability incubated for 24 hrs by MTT assay; format: functional, cell-based; details: BGC-823, 24 h
Rhizoctonia solani = assay: Antifungal activity Rhizoctonia solani assessed as fungal growth inhibition measured after 4 to 8 days; format: functional, organism-based
HCT-116 = assay: Antiproliferative activity against human HCT-116 cells assessed reduction in cell growth incubated for 24 hrs by MTT assay; format: functional, cell-based; details: HCT-116, 24 h
HT-29 = assay: Antiproliferative activity against human HT-29 cells assessed as reduction in cell viability incubated for 24 hrs by MTT assay; format: functional, cell-based; details: HT-29, 24 h
A-375 = assay: Cytotoxicity against human A-375 cells assessed as reduction in cell growth measured after 24 hrs by MTT assay; format: functional, cell-based; details: A-375, 24 h
A2780 = assay: Antiproliferative activity against human A2780 cells assessed as reduction in cell growth incubated for 72 hrs by MTT assay; format: functional, cell-based; details: A2780, 72 h
FaDu = assay: Antiproliferative activity against human FaDu cells assessed as inhibition of cell growth incubated for 72 hrs by 3H-thymidine incorporation assay; format: functional, cell-based
[6] = biological target: T1, Fibroblast growth factor receptor 1 (Homo sapiens, UniProt P11362); assay: Inhibition of human recombinant FGFR1 at 10 uM by Enzyme-linked immunosorbent assay relative to control
T1 sequence (P11362 22-822 limits assumed): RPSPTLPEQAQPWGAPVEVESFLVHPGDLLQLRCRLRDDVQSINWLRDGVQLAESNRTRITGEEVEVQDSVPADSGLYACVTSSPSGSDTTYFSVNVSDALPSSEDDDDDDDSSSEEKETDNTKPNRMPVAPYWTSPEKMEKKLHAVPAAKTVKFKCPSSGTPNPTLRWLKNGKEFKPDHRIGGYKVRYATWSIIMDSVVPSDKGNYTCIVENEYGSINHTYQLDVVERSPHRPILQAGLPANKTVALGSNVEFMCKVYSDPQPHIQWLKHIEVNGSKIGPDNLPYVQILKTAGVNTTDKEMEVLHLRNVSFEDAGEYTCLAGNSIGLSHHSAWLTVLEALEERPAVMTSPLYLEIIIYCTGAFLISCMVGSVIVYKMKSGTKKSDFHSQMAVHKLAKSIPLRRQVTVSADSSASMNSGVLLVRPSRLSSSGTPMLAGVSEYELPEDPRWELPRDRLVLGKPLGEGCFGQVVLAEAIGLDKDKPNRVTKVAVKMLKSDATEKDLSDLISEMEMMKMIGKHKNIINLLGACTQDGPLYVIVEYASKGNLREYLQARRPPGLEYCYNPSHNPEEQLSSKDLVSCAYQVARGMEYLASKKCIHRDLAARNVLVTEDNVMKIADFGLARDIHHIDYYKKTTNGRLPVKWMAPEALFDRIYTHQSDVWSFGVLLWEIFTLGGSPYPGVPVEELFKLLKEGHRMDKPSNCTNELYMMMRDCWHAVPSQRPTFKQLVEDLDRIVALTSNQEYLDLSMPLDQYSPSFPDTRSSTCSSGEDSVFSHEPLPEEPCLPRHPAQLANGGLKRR

[7] = biological target: T1, Fibroblast growth factor receptor 1; assay: Inhibition of human recombinant FGFR1 at 1 uM by Enzyme-linked immunosorbent assay relative to control
Histone deacetylase 1 = Histone deacetylase 1 (Homo sapiens, UniProt Q13547); assay: Inhibition of human recombinant HDAC1
Histone deacetylase 1, sequence (Q13547 whole entry): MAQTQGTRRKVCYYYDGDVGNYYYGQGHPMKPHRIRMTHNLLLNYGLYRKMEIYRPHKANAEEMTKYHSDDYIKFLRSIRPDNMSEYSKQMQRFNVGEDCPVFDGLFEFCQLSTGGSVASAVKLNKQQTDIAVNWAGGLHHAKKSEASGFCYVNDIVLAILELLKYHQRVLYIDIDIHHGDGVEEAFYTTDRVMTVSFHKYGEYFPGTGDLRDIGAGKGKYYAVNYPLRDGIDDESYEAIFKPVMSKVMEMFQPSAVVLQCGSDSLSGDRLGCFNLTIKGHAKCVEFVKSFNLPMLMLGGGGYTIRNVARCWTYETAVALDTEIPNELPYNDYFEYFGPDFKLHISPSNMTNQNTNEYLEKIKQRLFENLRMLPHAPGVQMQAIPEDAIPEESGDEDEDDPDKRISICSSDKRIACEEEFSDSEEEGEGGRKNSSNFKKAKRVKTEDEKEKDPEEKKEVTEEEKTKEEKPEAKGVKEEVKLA

Histone deacetylase 3 = Histone deacetylase 3 (Homo sapiens, UniProt O15379); assay: Inhibition of human recombinant HDAC3
Histone deacetylase 3, sequence (O15379 whole entry): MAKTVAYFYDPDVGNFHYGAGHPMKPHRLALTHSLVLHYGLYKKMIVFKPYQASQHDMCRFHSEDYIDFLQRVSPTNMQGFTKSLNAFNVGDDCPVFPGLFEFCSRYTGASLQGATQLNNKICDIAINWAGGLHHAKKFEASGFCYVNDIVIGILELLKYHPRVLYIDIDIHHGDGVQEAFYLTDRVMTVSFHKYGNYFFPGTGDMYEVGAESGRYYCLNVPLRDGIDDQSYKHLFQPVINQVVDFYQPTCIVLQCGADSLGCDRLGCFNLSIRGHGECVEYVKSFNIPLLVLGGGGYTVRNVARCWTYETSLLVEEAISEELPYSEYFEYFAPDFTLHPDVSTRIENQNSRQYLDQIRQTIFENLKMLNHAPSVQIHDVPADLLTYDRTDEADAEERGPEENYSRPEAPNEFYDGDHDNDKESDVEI

Histone deacetylase 2 = Histone deacetylase 2 (Homo sapiens, UniProt Q92769); assay: Inhibition of human recombinant HDAC2
Histone deacetylase 2, sequence (Q92769 whole entry): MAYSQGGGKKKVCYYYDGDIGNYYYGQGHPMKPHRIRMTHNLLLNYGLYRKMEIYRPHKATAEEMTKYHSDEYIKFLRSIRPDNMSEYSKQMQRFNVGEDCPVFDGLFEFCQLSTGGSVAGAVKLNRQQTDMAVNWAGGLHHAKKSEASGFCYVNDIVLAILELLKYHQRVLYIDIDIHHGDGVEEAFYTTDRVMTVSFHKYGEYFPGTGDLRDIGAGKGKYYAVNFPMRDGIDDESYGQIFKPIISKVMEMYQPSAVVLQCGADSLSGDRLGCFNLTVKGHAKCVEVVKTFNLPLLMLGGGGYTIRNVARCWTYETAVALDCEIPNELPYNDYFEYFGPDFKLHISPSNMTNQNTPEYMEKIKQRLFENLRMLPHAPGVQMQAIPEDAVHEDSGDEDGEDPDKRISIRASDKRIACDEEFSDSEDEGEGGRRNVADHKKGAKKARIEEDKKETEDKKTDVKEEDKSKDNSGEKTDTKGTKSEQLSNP

[8] = Antiproliferative activity against mouse […] cells assessed as inhibition of cell growth incubated for 48 hrs by MTT assay; format: functional, cell-based; details: 48 h
PC-3 [9] = assay: Antiproliferative activity against human PC-3 cells assessed as reduction in cell viability incubated for 24 hrs by MTT assay; format: functional, cell-based; details: PC-3, 24 h
HeLa = assay: Antiproliferative activity against human HeLa cells assessed as reduction in cell viability incubated for 24 hrs by MTT assay; format: functional, cell-based
NCI-H460 = assay: Cytotoxicity against human NCI-H460 cells assessed as reduction in cell growth incubated for 72 hrs by CCK-8 assay; format: functional, cell-based; details: NCI-H460, 72 h
ES-2 = assay: Cytotoxicity against human ES2 cells assessed as reduction in cell growth incubated for 72 hrs by CCK-8 assay; format: functional, cell-based; details: ES-2, 72 h
A549 [10] = assay: Cytotoxicity against human A549 cells assessed as reduction in cell growth incubated for 72 hrs by CCK-8 assay; format: functional, cell-based; details: A549, 72 h
NCI-H1299 = assay: Cytotoxicity against human NCI-H1299 cells assessed as reduction in cell growth incubated for 72 hrs by CCK-8 assay; format: functional, cell-based; details: NCI-H1299, 72 h
SW626 = assay: Cytotoxicity against human SW626 cells assessed as reduction in cell growth incubated for 72 hrs by CCK-8 assay; format: functional, cell-based; details: SW626, 72 h
SK-OV-3 = assay: Cytotoxicity against human SK-OV-3 cells assessed as reduction in cell growth incubated for 72 hrs by CCK-8 assay; format: functional, cell-based; details: SK-OV-3, 72 h
HEY = assay: Cytotoxicity against human HEY cells assessed as reduction in cell growth incubated for 72 hrs by CCK-8 assay; format: functional, cell-based
Caco-2 = assay: Cytotoxicity against human Caco-2 cells assessed as reduction in cell growth incubated for 72 hrs by CCK-8 assay; format: functional, cell-based; details: Caco-2, 72 h
OVCAR-5 = assay: Cytotoxicity against human OVCAR-5 cells assessed as reduction in cell growth incubated for 72 hrs by CCK-8 assay; format: functional, cell-based; details: OVCAR-5, 72 h
Cholinesterase = Cholinesterase (Homo sapiens, UniProt P06276); assay: Inhibition of BchE (unknown origin)
Cholinesterase, sequence (P06276 whole entry): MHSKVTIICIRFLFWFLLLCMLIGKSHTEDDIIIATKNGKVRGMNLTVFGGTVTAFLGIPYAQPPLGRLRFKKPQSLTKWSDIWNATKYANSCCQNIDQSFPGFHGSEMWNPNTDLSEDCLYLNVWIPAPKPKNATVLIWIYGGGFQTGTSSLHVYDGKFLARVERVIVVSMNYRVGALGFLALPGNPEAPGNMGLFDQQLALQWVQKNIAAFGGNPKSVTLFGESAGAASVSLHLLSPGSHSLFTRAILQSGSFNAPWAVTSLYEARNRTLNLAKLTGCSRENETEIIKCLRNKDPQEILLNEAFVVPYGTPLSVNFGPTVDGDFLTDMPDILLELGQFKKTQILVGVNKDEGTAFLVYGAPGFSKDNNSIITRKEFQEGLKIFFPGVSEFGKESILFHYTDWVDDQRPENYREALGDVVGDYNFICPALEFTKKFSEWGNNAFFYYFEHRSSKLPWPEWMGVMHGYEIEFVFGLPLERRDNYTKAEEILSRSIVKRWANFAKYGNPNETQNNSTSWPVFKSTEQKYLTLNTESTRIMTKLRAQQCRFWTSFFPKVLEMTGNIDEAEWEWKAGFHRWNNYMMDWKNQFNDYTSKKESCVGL

Acetylcholinesterase = Acetylcholinesterase (Homo sapiens, UniProt P22303); assay: Inhibition of AChE (unknown origin)
Acetylcholinesterase, sequence (P22303 whole entry): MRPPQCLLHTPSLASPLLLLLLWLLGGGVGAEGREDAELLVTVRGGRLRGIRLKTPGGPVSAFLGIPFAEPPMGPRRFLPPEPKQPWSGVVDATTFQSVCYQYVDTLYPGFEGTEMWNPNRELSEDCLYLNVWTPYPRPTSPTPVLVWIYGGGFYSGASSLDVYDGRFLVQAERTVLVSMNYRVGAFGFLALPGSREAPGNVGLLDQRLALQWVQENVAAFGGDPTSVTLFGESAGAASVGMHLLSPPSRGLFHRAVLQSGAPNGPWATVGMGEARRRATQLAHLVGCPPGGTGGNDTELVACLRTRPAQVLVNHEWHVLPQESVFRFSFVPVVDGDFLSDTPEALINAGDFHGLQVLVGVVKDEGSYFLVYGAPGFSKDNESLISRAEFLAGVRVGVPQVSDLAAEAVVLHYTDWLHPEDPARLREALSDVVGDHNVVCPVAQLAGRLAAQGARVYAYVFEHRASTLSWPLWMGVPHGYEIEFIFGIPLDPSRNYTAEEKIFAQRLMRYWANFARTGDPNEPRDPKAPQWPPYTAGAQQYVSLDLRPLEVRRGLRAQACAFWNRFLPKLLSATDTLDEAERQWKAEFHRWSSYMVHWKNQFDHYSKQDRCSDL

`CCn1c(-c2ccc(OC)cc2)cn2nc(-c3ccc(OC)cc3)cc2c1=O` showed an IC50 (A549 [1]) of 49700 nM and an IC50 (H322) of 50600 nM.
Molecule `O=C1c2cc3ccccc3n2C(=O)C2Cc3ccncc3N12` (configuration not stated) has an Activity (MCF7) of 50.6%.
With `C[C@H](O)[C@@]1(C)CCC2[C@]3(C)CC=C4C(C)(C)c5nc(C(=O)NCCc6ccccc6)cnc5C[C@]4(C)[C@H]3CC[C@@]21C` (some centres not stated) the “Ratio IC50” value [2] was 28.71, the IC50 at 48 h [3] was 26700 nM and the IC50 (PC-3 [4]) was 930 nM.
For `Fc1ccc(CSc2nnc(-c3cnccn3)n2-c2ccccc2)cc1`, the IC50 (SW 1116) was 4120 nM and the IC50 [5] was 15000 nM.
`CC(C)(O)CCC[C@](C)(O)C1CC[C@]2(C)[C@@H]1[C@H](O)C[C@@H]1[C@@]3(C)Cc4nccnc4C(C)(C)[C@@H]3CC[C@]12C` (some centres not stated) gave an IC50 (BGC-823) of 11500 nM.
Molecule `O=c1c2cc(-c3ccc(Cl)cc3)nn2cc(-c2ccccc2)n1CCN1CCOCC1` has an IC50 (A549 [1]) of 24200 nM and an IC50 (H322) of 34700 nM.
`O=C(OCc1cnccn1)c1ccccc1` showed an EC50 (Rhizoctonia solani) of 0.02 µg/mL (≈ 0.0934 µM).
With `C[C@@H]1[C@]2(O[C@H]3C=C4[C@@H]5CC[C@H]6Cc7nc8c(nc7C[C@]6(C)[C@H]5C[C@@H](O)[C@]4(C)[C@]31O)C[C@@H]1CC[C@H]3C4=CC5O[C@@]6(CCC(C)(C)O6)[C@@H](C)[C@@H]5[C@@]4(C)[C@H](O)C[C@@H]3[C@@]1(C)C8)O[C@@](C)(COC(=O)CNC(=O)Cc1cc(=O)oc3cc(N(C)C)ccc13)C[C@H]2O` (some centres not stated) the IC50 (HCT-116) was 79 nM.
`C[C@H]1[C@H](C)CC[C@]2(C)CC[C@]3(C)C(=CC(=O)[C@@H]4[C@@]5(C)Cc6nccnc6[C@](C)(C(=O)OCc6ccccc6)[C@@H]5CC[C@]43C)[C@H]12` showed an IC50 (HT-29) of 12200 nM, an IC50 (A-375) of 2100 nM and an IC50 (A2780) of 13700 nM. For the same molecule, the IC50 (FaDu) was > 30000 nM.
`Cn1cc(-c2cnc3ccn(S(=O)(=O)c4ccccc4)c3n2)cn1` gave an inhibition [6] of 93.3% and an inhibition [7] of 92.5%.
Work on `CC1c2nccnc2C[C@]2(C)[C@H]3C(=O)C=C4[C@@H]5[C@@H](C)[C@H](C)CC[C@]5(C)CC[C@@]4(C)[C@]3(C)CC[C@@H]12` (some centres not stated) yielded an IC50 (HT-29) of 22700 nM, an IC50 (A-375) of 12000 nM and an IC50 (A2780) of 15700 nM. For the same molecule, the IC50 (FaDu) was > 30000 nM.
Work on `Cn1cc(CCN2CCN(c3cnc(C(=O)Nc4cc(-c5cccs5)ccc4[N+](=O)[O-])cn3)CC2)c2ccccc21` yielded an IC50 (Histone deacetylase 1) of 260 nM, an IC50 (Histone deacetylase 3) of 1000 nM and an IC50 (Histone deacetylase 2) of 2470 nM.
Work on `C[C@@H]1[C@]2(O[C@H]3C=C4[C@@H]5CC[C@H]6Cc7nc8c(nc7C[C@]6(C)[C@H]5C[C@@H](O)[C@]4(C)[C@]31O)C[C@@H]1CC[C@H]3C4=CC5O[C@@]6(CCC(C)(C)O6)[C@@H](C)[C@@H]5[C@@]4(C)[C@H](O)C[C@@H]3[C@@]1(C)C8)O[C@](C)(COC(=O)CNC(=O)Cc1cc(=O)oc3cc(N(C)C)ccc13)C[C@H]2O` (some centres not stated) yielded an IC50 (HCT-116) of 84 nM.
For `CCn1nc(C2CCN(C(=O)CCO)CC2)nc1-c1cnc(N)c(-c2nnc(C(C)(C)C)o2)n1` [AZD-8835], the IC50 [8] was 930 nM.
In the case of `CN(CCCN(C)CCN1C(=O)c2cccc3c2c(cc2nccnc23)C1=O)CCN1C(=O)c2cccc3c2c(cc2nccnc23)C1=O`, the IC50 (HT-29) is reported as 20 nM, the IC50 (PC-3 [9]) is reported as 80 nM and the IC50 (HeLa) is reported as 80 nM.
`CC(C)N1C[C@H]2C[C@@H]1CN2c1ccc(Nc2nc(-c3ccc4cn[nH]c4c3)cn3ccnc23)cc1` showed an IC50 (NCI-H460) of 1480 nM, an IC50 (ES-2) of 1960 nM and an IC50 (A549 [10]) of 830 nM. It also gave an IC50 (NCI-H1299) of 720 nM, an IC50 (SW626) of 9170 nM and an IC50 (SK-OV-3) of 760 nM. It also gave an IC50 (HEY) of 1010 nM, an IC50 (Caco-2) of 7390 nM and an IC50 (OVCAR-5) of 1530 nM.
`Cc1cccc(-c2cnc3cccnc3n2)c1` showed an IC50 (Cholinesterase) of 500 nM and an IC50 (Acetylcholinesterase) of 890 nM.
